The values below come from US12325708B2, “Adenosine 2 receptor antagonists” (Nektar Therapeutics, priority 2019, dated 2025).

Read-outs that look alike come from different tables or passages of the source. Bounds are passed on as bounds.

One data set addresses T1, A1 receptor (Homo sapiens, UniProt P30542).
T1 construct: purchased
T1 sequence (P30542 1-326): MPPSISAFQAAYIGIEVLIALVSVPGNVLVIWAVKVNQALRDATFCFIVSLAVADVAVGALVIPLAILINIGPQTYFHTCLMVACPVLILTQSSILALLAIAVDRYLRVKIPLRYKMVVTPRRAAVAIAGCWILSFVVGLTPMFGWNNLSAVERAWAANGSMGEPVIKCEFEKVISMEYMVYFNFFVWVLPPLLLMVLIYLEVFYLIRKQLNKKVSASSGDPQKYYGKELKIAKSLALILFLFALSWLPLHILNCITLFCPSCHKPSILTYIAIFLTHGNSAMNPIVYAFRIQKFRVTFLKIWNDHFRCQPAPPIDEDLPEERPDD
As to the kind of experiment: Radioligand receptor binding assay, A1 receptor. Particulars: cell membranes overexpressing A1 receptor, read-out: Potency Ki A1. How it is done: (§1) Using conventional receptor binding assay techniques, Compounds 1-24 were assayed to determine binding activity at the A2A, A1, and A3 receptors with the results shown in Table 7.
(§2) Receptor binding affinity of Compounds 1-24 was measured using radioligand binding assays using commercially obtained cell membranes prepared from cell lines overexpressing the A2A, A1, or A3 receptors. Briefly, cell membrane preparations from cells expressing the specific receptor were mixed with the appropriate [^3H]-labeled tracer for the specific receptor and the test compound or a known inhibitor of receptor-ligand binding. Following 60 min incubation at room temperature to allow receptor-ligand complex formation, the complexes were collected by filtration, washed with 50 mM Tris HCl (pH 7.5) to remove radioligand that was not receptor-bound, and the remaining radioactivity determined by liquid scintillation counting. Specific radioligand binding was calculated for each test compound concentration and IC50 values were determined by non-linear, regression analysis. Inhibition constants (Ki) were calculated using the equation of Cheng and Prusoff using the observed IC50 of the tested compound, the concentration of radioligand employed in the assay and the experimentally determined values for the Kd of the ligand.

A short description of data set [1]: Brain-to-plasma ratio (B/P) after administration. It counts as in vivo, Sprague-Dawley rats. Conditions: Sprague-Dawley, rat, brain-to-plasma ratio at 1 h. From the text:
A similar unexpected result was obtained when the phenyl ring present on Compound 1 was replaced with a halogen substituted pyridine. The halogen was previously introduced on the phenyl ring with the aim of blocking a possible metabolic soft-spot, with similar results observed as for Compound 1 in terms of exposure, clearance and bioavailability (Compound 10 and Compound 15). The substituted pyridine ring was designed to modulate the lipophilicity and polar surface area, as well as to address metabolic soft-spot concerns. Clearance and bioavailability parameters remain similar between substituted phenyl and pyridine (Compound 4 and Compound 14) analogs, which span a range in cLogP of 2.7-3.2. It was therefore surprising the significant improvement in exposure and clearance observed for the more lipophilic Compound 19. […] A compound is commonly deemed to be a brain penetrant if the brain-to-blood/plasma concentration ratio (B/P) is greater than 0.04 using methods as known in the art (Schaffer, Annual Reports in Medicinal Chemistry, 45:55-70, 2010).
Plasma pharmacokinetic parameters were determined following oral (PO) administration of further compounds essentially as described in Example 28 with the results shown in Table 6.

The target in a further data set is T2, A2A receptor (Homo sapiens, UniProt P29274).
T2 construct: purchased
In words: Radioligand receptor binding assay, A2A receptor. Particulars: cell membranes overexpressing A2A receptor, read-out: Potency Ki A2A. How it is done:
as §1, §2

Data set [2] is described as follows: Plasma pharmacokinetic parameters following intravenous (IV) or oral (PO) administration in rats. It is filed as in vivo, Sprague-Dawley rats. Particulars: rat; for Cmax: read-out: Cmax; for Tmax: read-out: Tmax. How it is done:
Adult male Sprague-Dawley rats (230-250 g) (Charles River Labs, Hollister, CA) were utilized for the study. There were 2 rats/group. All animals were food fasted overnight with water provided ad libitum at all times. Compounds 1, 4, 14 and 19 were synthesized as described in Examples 2, 17, 7, and 12, respectively, and formulated in injectable water.
(§3) The morning of each dosing, individual doses were calculated based on current body weights on the day of dosing. The jugular vein cannula (JVC) and the carotid artery cannula (CAC) were externalized, flushed with HEP/saline (10 IU/mL HEP/mL saline), plugged, and labeled to identify the jugular vein and the carotid artery. The IV group animals were dosed at 0.5 mg/kg of Compound 1, 4, 14 or 19, respectively, intravenously via the jugular vein, while the PO dose was administered 2.5 mg/kg of Compound 1, 4, 14 or 19, respectively, orally via gavage. For the IV group, immediately following the dose of test article, the dead volume of the catheter was flushed with 0.9% saline to ensure the animals received the full dose.
Approximately 0.2 mL of blood was collected per time point from JVC. Blood samples were collected at 2 (IV group only), 5, 15, 30, 60, 120, 240, 360, 420 (Compound 19 only), 480, 720 (Compound 19 only), and 1440 minutes via the CAC and transferred immediately into K2EDTA coated tubes pre-loaded 2 μl with quenching cocktail and placed on wet ice. The samples were centrifuged within 30 min after collection at 10,000 RPM for 5 minutes and the resulting plasma was separated. Plasma was transferred into microfuge tubes and placed on dry ice immediately. The plasma samples were stored at approximately −70° C. until bioanalysis.
Plasma samples were extracted by protein precipitation with acetonitrile containing 0.1% formic acid and doxepin for Compound 1 (available from Sigma-Aldrich) or SCH58261 for Compounds 4, 14 and 19 (available from Sigma-Aldrich) as an internal standard. Following vortex and centrifugation, supernatant was diluted 3-fold with water containing 0.1% formic acid and analyzed by LC-MS/MS.
Pharmacokinetic parameters (PK) were determined by non-compartmental analysis (NCA) using Phoenix 64 WinNonlin (version 8) and Dotmatics (version 5.0). Nominal doses and time points were used for the analysis.
The following PK parameters were estimated using plasma concentration-time profile of each animal with the results presented in Table 3: • AUCinf Area under the concentration-time from zero to time infinity • AUClast Area under the concentration-time from zero to time of last concentration value • F Bioavailability • CL Total body clearance • Cmax Maximum (peak) concentration • MRTlast Mean residence time to last observable concentration • Tmax Time to reach maximum or peak concentration following administration • Vss Volume of distribution at steady state
Adult male Sprague-Dawley rats (230-250 g) (Charles River Labs, Hollister, CA) were utilized for the study. There were 2 rats/group. All animals were food fasted overnight with water provided ad libitum at all times. Compound 1 was synthesized as described in Example 2 and formulated in injectable water.
as §3, with “1” for “1, 4, 14 or 19, respectively,”
Approximately 0.2 mL of blood was collected per time point from JVC. […]

[3] abbreviates: male, Sprague-Dawley, plasma, 2.5 mg/kg, Table 6, oral (PO) administration essentially as described in Example 28.
Where [4] appears, read: male, Sprague-Dawley, plasma, intravenous, 0.5 mg/kg, Table 6, essentially as described in Example 28.
[5] abbreviates: male, Sprague-Dawley, plasma, po, 2.5 mg/kg, Table 6, oral (PO) administration essentially as described in Example 28.
[6] abbreviates: male, Sprague-Dawley, plasma, iv, 0.5 mg/kg, IV 0.5 mg/kg, injectable water.
Where [7] appears, read: male, Sprague-Dawley, plasma, oral, 2.5 mg/kg, Table 2 summary of Example 27, values marked 1 are the average of experiments.
Where [8] appears, read: male, Sprague-Dawley, plasma, po, 2.5 mg/kg, PO 2.5 mg/kg via gavage, injectable water.

T2 sequence (P29274 whole entry): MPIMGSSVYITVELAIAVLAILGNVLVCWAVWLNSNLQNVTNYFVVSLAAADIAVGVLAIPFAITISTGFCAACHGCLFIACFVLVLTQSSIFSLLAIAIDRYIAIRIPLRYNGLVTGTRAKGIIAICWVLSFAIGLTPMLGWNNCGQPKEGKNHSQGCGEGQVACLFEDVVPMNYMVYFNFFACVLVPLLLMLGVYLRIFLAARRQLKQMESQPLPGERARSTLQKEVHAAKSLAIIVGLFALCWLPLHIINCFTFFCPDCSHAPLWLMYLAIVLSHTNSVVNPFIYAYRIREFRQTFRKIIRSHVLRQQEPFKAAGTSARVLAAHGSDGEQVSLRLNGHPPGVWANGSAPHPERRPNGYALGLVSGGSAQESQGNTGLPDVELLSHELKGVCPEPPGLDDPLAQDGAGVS

Consider `COCCOc1ccc(N2CCN(CCN(C)c3cc4nc(-c5ncco5)nn4c(N)n3)CC2)c(OC)c1` [Compound 17, N^7-(2-{4-[2-methoxy-4-(2-methoxyethoxy)phenyl]piperazin-1-yl}ethyl)-N^7-methyl-2-(1,3-oxazol-2-yl)[1,2,4]triazolo[1,5-c]pyrimidine-5,7-diamine], for which the Ki at A1 receptor is 11.8 µM; on A2A receptor it was 0.02 µM. Moreover, the Kp at 1 h in data set [1] (oral, 2.5 mg/kg, Table 6) is 0.03. Further, in data set [2] (setting [3]), the AUC was found to be 406 ng·h/mL. This molecule also came in with a clearance in data set [2] (setting [4]) of 44 mL/min/kg. The molecule further had a bioavailability in data set [2] (setting [5]) of 43%.
For the molecule `[2H]C([2H])([2H])OC([2H])([2H])C([2H])([2H])Oc1ccc(N2CCN(CCN(c3cc4nc(-c5ncco5)nn4c(N)n3)C([2H])([2H])[2H])CC2)cc1` [Compound 18, N^7-(^2H3)methyl-N^7-(2-{4-[4-({2-[(^2H3)methyloxy](^2H4)ethyl}oxy)phenyl]piperazin-1-yl}ethyl)-2-(1,3-oxazol-2-yl)[1,2,4]triazolo[1,5-c]pyrimidine-5,7-diamine], the values for the inhibition constant (Ki) on A1 receptor and at A2A receptor were more than 100 µM and 0.008 µM, respectively. Further, the Kp at 1 h in data set [1] (oral, 2.5 mg/kg, Table 6) came to 0.09. The molecule also showed an area under the curve (AUC) in data set [2] (setting [3]) of 900 ng·h/mL. In addition, in data set [2] (setting [4]), the clearance stood at 33 mL/min/kg. In addition, the bioavailability in data set [2] (setting [5]) is 71%.
In the case of `COCCOc1cnc(N2CCN(CCN(C)c3cc4nc(-c5ncco5)nn4c(N)n3)CC2)c(C(F)(F)F)c1` [Compound 19, N^7-(2-{4-[5-(2-methoxyethoxy)-3-(trifluoromethyl)pyridin-2-yl]piperazin-1-yl}ethyl)-N^7-methyl-2-(1,3-oxazol-2-yl)[1,2,4]triazolo[1,5-c]pyrimidine-5,7-diamine], the Ki on A1 receptor worked out at 16 µM. In data set [1] (Table 2), the Kp at 1 h came to 0.01. The Ki at A2A receptor was found to be 0.004 µM. In data set [2] (male, Sprague-Dawley, plasma, intravenous, 0.5 mg/kg, Table 2 summary of Example 27, values marked 1 are the average of experiments), this molecule registered a clearance of 7 mL/min/kg. In data set [2] (setting [6]), this molecule came in with an AUC(0-inf) of 1230 ng·h/mL, an area under the curve AUC(0-t) of 1220 ng·h/mL, an MRT last of 1.48 h and a clearance of 6.85 mL/min/kg. Moreover, in data set [2] (setting [6]), the peak concentration (Cmax) turned out to be 1020 ng/mL and the Tmax is 0.033 h. For the same molecule, the Vd in data set [2] (male, Sprague-Dawley, plasma, iv, 0.5 mg/kg, IV 0.5 mg/kg, injectable water, read-out: Vss obs) was 0.635 L/kg. In data set [2] (setting [7]), this molecule gave an AUC of 4980 ng·h/mL and a bioavailability of 83%. In addition, in data set [2] (setting [8]), the area under the curve AUC(0-inf) was 5050 ng·h/mL, the AUC(0-t) amounted to 4980 ng·h/mL, the MRT last worked out at 2.65 h and the Cmax was found to be 1300 ng/mL. In data set [2] (setting [8]), the Tmax was 1.25 h. In addition, the “Total clearance as % liver blood flow” value in data set [2] (IV) is approximately 10 % liver blood flow. In data set [2] (IV 0.5 mg/kg, injectable water, 0.5 mg/kg), the MRTlast turned out to be 1.4825 h. For the same molecule, the CL in data set [2] (PO 2.5 mg/kg row of Table 3) amounted to 9.05 mL/min/kg. Moreover, the F in data set [2] (PO 2.5 mg/kg vs IV 0.5 mg/kg) was 82.7%.
On to `[2H]C([2H])([2H])OC([2H])([2H])C([2H])([2H])Oc1ccc(N2C([2H])([2H])C([2H])([2H])N(C([2H])([2H])C([2H])([2H])N(c3cc4nc(-c5ncco5)nn4c(N)n3)C([2H])([2H])[2H])C([2H])([2H])C2([2H])[2H])cc1` [Compound 20, N^7-(^2H3)methyl-N^7-[2-{4-[4-({2-[(^2H3)methyloxy](^2H4)ethyl}oxy)phenyl](^2H8)piperazin-1-yl}(^2H4)ethyl]-2-(1,3-oxazol-2-yl)[1,2,4]triazolo[1,5-c]pyrimidine-5,7-diamine], for which the Ki at A1 receptor is more than 100 µM; on A2A receptor it was 0.006 µM. Moreover, in data set [1] (oral, 2.5 mg/kg, Table 6), the Kp at 1 h turned out to be 0.05. In addition, the AUC in data set [2] (setting [3]) came out at 1170 ng·h/mL. This molecule also yielded a clearance in data set [2] (setting [4]) of 17 mL/min/kg. The bioavailability in data set [2] (setting [5]) worked out at 50%.
For `COCCOc1cnc(N2CCN3[C@H](CC[C@H]3CN(C)c3cc4nc(-c5ncco5)nn4c(N)n3)C2)c(F)c1` [Compound 21, N^7—({(6S,8aR)-2-[3-fluoro-5-(2-methoxyethoxy)pyridin-2-yl]octahydropyrrolo[1,2-a]pyrazin-6-yl}methyl)-N^7-methyl-2-(1,3-oxazol-2-yl)[1,2,4]triazolo[1,5-c]pyrimidine-5,7-diamine], the Ki on A1 receptor is 3.08 µM; at A2A receptor, 0.008 µM. The Kp at 1 h in data set [1] (oral, 2.5 mg/kg, Table 6) worked out at 0.05. For the same molecule, the AUC in data set [2] (setting [3]) came to 429 ng·h/mL. For the same molecule, the clearance in data set [2] (setting [4]) was 30 mL/min/kg. Also, the bioavailability in data set [2] (setting [5]) turned out to be 31%.
